Read-outs that look alike come from different tables or passages of the source.
Columns and labels:
[1] = biological target: GDP-bound HRAS wild-type protein (Homo sapiens, UniProt P01112); assay: Binding to HRAS by surface plasmon resonance (SPR), Single Cycle Kinetics; conditions: SPR, GDP-bound HRAS wild-type protein vs GDP-bound KRAS wild-type protein
[2] = test system: human lung cancer strain NCI-H441;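 also: cell proliferation inhibition after four days measured by CellTiter-Glo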
[3] = biological target: GDP-bound KRAS wild-type protein (Homo sapiens, UniProt P01116); assay: Binding to KRAS by surface plasmon resonance (SPR), Single Cycle Kinetics; conditions: SPR, Single Cycle Kinetics, GDP-bound KRAS wild-type protein, read-out: KRAS KD
[4] = biological target: GDP-bound NRAS wild-type protein (Homo sapiens, UniProt P01111); assay: Binding to NRAS by surface plasmon resonance (SPR), Single Cycle Kinetics; conditions: SPR, GDP-bound NRAS wild-type protein vs GDP-bound KRAS wild-type protein
GDP-bound NRAS wild-type protein, sequence (P01111 whole entry): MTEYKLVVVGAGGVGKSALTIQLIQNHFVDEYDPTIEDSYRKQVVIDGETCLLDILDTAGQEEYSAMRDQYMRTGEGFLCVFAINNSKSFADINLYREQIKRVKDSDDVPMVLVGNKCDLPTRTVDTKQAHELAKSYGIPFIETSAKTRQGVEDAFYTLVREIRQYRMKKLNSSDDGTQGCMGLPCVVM

GDP-bound KRAS wild-type protein, sequence (P01116 whole entry): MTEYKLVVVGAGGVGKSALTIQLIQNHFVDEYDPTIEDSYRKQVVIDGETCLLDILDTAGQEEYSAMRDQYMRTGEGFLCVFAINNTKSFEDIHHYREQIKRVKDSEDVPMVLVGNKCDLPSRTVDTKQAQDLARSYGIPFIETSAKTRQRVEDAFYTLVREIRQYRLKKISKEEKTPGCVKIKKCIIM
GDP-bound HRAS wild-type protein, sequence (P01112 whole entry): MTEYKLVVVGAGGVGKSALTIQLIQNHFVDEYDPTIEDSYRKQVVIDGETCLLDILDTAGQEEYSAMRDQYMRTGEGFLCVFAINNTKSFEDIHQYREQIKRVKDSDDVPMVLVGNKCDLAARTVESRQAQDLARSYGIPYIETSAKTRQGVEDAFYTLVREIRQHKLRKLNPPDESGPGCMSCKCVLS

| SMILES | IC50 [2] [nM] | Kd ([3]; 1:1 binding model) [nM] | Kd [3] [nM] | HRAS/KRAS (ratio of KD value for HRAS to KD value for KRAS) ([1]; KD ratio class) | NRAS/KRAS (ratio of KD value for NRAS to KD value for KRAS) ([4]; KD ratio class) | HRAS/KRAS (ratio of KD value for HRAS to KD value for KRAS) [1] | NRAS/KRAS (ratio of KD value for NRAS to KD value for KRAS) [4] |
| --- | --- | --- | --- | --- | --- | --- | --- |
| CCO[C@@H]1C[C@H]2C(=O)NC3(CCCC3)C(=O)N(C)[C@@H](C3CCCC3)C(=O)N(C)[C@H](C(=O)N3CCOCC3)CC(=O)N(C)[C@@H](CC)C(=O)N[C@@H]([C@@H](C)CC)C(=O)N(C)CC(=O)N(C)[C@H]3CC[C@@H](C)CN(C3=O)[C@@H](Cc3ccc(C(F)(F)F)cc3)C(=O)N(C)CC(=O)N[C@@H](CCc3cc(F)c(C(F)(F)F)c(F)c3)C(=O)N2C1 [PP1371] | 5.1 | 0.077 | – | B (a compound having 3 or more and less than 10 is denoted as B) | A (a compound having 10 or more and less than 20 is denoted as A) | – | – |
| CC[C@H](C)[C@@H]1NC(=O)[C@H](CC)N(C)C(=O)C[C@@H](C(=O)N(C)C)N(C)C(=O)[C@H](C2CCCC2)N(C)C(=O)C2(CCC2)NC(=O)[C@H](CC2CCCCC2)N(C)C(=O)[C@H](CCc2cc(F)c(C(F)(F)F)c(F)c2)NC(=O)CN(C)C(=O)[C@H](Cc2ccc(C(F)(F)F)cc2)N2CC/C=C\C[C@@H](C2=O)N(C)C(=O)CN(C)C1=O [PP1149] | 173 | – | 0.43 | – | – | A (a compound having 10 or more and less than 20 is denoted as A) | A (a compound having 10 or more and less than 20 is denoted as A) |
| CCO[C@@H]1C[C@H]2C(=O)NC3(CCC3)C(=O)N(C)[C@@H](C3CCCC3)C(=O)N(C)[C@H](C)CC(=O)N(C)[C@@H](CC3CCCC3)C(=O)N[C@@H]([C@@H](C)CC)C(=O)N(C)CC(=O)N(C)[C@H]3C/C=C\CCN(C3=O)[C@@H](Cc3ccc(C)cc3)C(=O)N(C)CC(=O)N[C@@H](CCc3cc(F)c(C(F)(F)F)c(F)c3)C(=O)N2C1 [PP1413] | 62.5 | 0.42 | – | B (a compound having 3 or more and less than 10 is denoted as B) | B (a compound having 3 or more and less than 10 is denoted as B) | – | – |
| CC[C@H](C)[C@@H]1NC(=O)[C@H](CC(C)C)N(C)C(=O)C[C@@H](C(=O)N2CCOCC2)N(C)C(=O)[C@H](C2CCCC2)N(C)C(=O)C2(CCC2)NC(=O)[C@@H]2C[C@@H](OCC(C)C)CN2C(=O)[C@H](CCc2cc(F)c(C(F)(F)F)c(F)c2)NC(=O)CN(C)C(=O)[C@H](Cc2ccc(C(F)(F)F)cc2)N2CCCC[C@@H](C2=O)N(C)C(=O)CN(C)C1=O [PP1160] | 18.4 | – | 0.032 | – | – | B (a compound having 3 or more and less than 10 is denoted as B) | B (a compound having 3 or more and less than 10 is denoted as B) |
| CCCOC[C@H]1C(=O)N[C@@H]([C@@H](C)CC)C(=O)N(C)CC(=O)N(C)[C@H]2C/C=C\CCN(C2=O)[C@@H](Cc2ccc(C(F)(F)F)cc2)C(=O)N(C)CC(=O)N[C@@H](CCc2cc(F)c(C(F)(F)F)c(F)c2)C(=O)N2C[C@H](OCC)C[C@H]2C(=O)NC2(CCC2)C(=O)N(C)[C@@H](C2CCCC2)C(=O)N(C)[C@H](C(=O)N(C)C)CC(=O)N1C [PP1395, (2S,8S,12R,14S,20S,23S,27S,30S,36S,38Z)-20-cyclopentyl-8-[2-[3,5-difluoro-4-(trifluoromethyl)phenyl]ethyl]-12-ethoxy-N,N,4,19,22,26,32,35-octamethyl-30-[(1S)-1-methylpropyl]-3,6,9,15,18,21,25,28,31,34,42-undecaoxo-27-(propoxymethyl)-2-[[4-(trifluoromethyl)phenyl]methyl]spiro[1,4,7,10,16,19,22,26,29,32,35-undecazatricyclo[34.5.1.0^10,14]dotetracont-38-ene-17,1′-cyclobutane]-23-carboxamide] | 3.8 | 0.063 | – | B (a compound having 3 or more and less than 10 is denoted as B) | A (a compound having 10 or more and less than 20 is denoted as A) | – | – |
| CCO[C@@H]1C[C@H]2C(=O)NC3(CCC3)C(=O)N(C)[C@@H](C(CC)CC)C(=O)N(C)[C@H](C(=O)N(C)C)CC(=O)N(C)[C@@H](CC)C(=O)N[C@@H]([C@@H](C)CC)C(=O)N(C)CC(=O)N(C)[C@H]3C/C=C\CCN(C3=O)[C@@H](Cc3ccc(C(F)(F)F)cc3)C(=O)N(C)CC(=O)N[C@@H](CCc3cc(F)c(Cl)c(F)c3)C(=O)N2C1 [PP1230] | 110 | 0.77 | – | A (a compound having 10 or more and less than 20 is denoted as A) | A (a compound having 10 or more and less than 20 is denoted as A) | – | – |
| CCO[C@@H]1C[C@H]2C(=O)NC3(CCC3)C(=O)N(C)[C@@H](C(CC)CC)C(=O)N(C)[C@H](C(=O)N3CCOCC3)CC(=O)N(C)[C@@H](CC)C(=O)N[C@@H]([C@@H](C)CC)C(=O)N(C)CC(=O)N(C)[C@H]3C/C=C\CCN(C3=O)[C@@H](Cc3ccc(C(F)(F)F)cc3)C(=O)N(C)CC(=O)N[C@@H](CCc3cc(F)c(C(F)(F)F)c(F)c3)C(=O)N2C1 [PP1286] | 58.8 | 0.65 | – | A (a compound having 10 or more and less than 20 is denoted as A) | AA (a compound having 20 or more is denoted as AA) | – | – |

Now from value to compound, other results behind:

| IC50 [2] [nM] | Kd ([3]; 1:1 binding model) [nM] | Kd [3] [nM] | SMILES | HRAS/KRAS (ratio of KD value for HRAS to KD value for KRAS) ([1]; KD ratio class) | NRAS/KRAS (ratio of KD value for NRAS to KD value for KRAS) ([4]; KD ratio class) | HRAS/KRAS (ratio of KD value for HRAS to KD value for KRAS) [1] | NRAS/KRAS (ratio of KD value for NRAS to KD value for KRAS) [4] |
| --- | --- | --- | --- | --- | --- | --- | --- |
| 11.2 | 0.12 | – | CCO[C@@H]1C[C@H]2C(=O)NC3(CCC3)C(=O)N(C)[C@@H](C3CCCC3)C(=O)N(C)[C@H](C(=O)N(C)C)CC(=O)N(C)[C@@H](CC(C)C)C(=O)N[C@@H]([C@@H](C)CC)C(=O)N(C)CC(=O)N(C)[C@H]3C/C=C\CCN(C3=O)[C@@H](CC3CCCCC3)C(=O)N(C)CC(=O)N[C@@H](CCc3cc(F)c(C(F)(F)F)c(F)c3)C(=O)N2C1 [PP1467, (2S,8S,12R,14S,20S,23S,27S,30S,36S,38Z)-2-(cyclohexylmethyl)-20-cyclopentyl-8-[2-[3,5-difluoro-4-(trifluoromethyl)phenyl]ethyl]-12-ethoxy-27-isobutyl-N,N,4,19,22,26,32,35-octamethyl-30-[(1S)-1-methylpropyl]-3,6,9,15,18,21,25,28,31,34,42-undecaoxo-spiro[1,4,7,10,16,19,22,26,29,32,35-undecazatricyclo[34.5.1.0^10,14]dotetracont-38-ene-17,1′-cyclobutane]-23-carboxamide] | A (a compound having 10 or more and less than 20 is denoted as A) | A (a compound having 10 or more and less than 20 is denoted as A) | – | – |
| 7.9 | – | 0.065 | CC[C@H](C)[C@@H]1NC(=O)[C@H](COC)N(C)C(=O)C[C@@H](C(=O)N(C)C)N(C)C(=O)[C@H](C2CCCC2)N(C)C(=O)C2(CC(C)(C)C2)NC(=O)[C@@H]2C[C@H](C)CN2C(=O)[C@H](CCc2ccc(C(F)(F)F)c(Cl)c2)NC(=O)CN(C)C(=O)[C@H](Cc2ccc(C)cc2)N2CC/C=C\C[C@@H](C2=O)N(C)C(=O)CN(C)C1=O [PP2502] | – | – | A (a compound having 10 or more and less than 20 is denoted as A) | A (a compound having 10 or more and less than 20 is denoted as A) |
| 162 | – | 1.7 | CCCOC[C@H]1C(=O)N[C@@H]([C@@H](C)CC)C(=O)N(C)CC(=O)N(C)[C@H]2C/C=C\CCN(C2=O)[C@@H](CC2CCC(F)(F)CC2)C(=O)N(C)CC(=O)N[C@@H](CCc2cc(F)c(C(F)(F)F)c(F)c2)C(=O)N2C[C@@H](C)C[C@H]2C(=O)NC2(CC(C)(C)C2)C(=O)N(C)[C@@H](C(CC)CC)C(=O)N(C)[C@H](C(=O)N(C)C)CC(=O)N1C [PP2490] | – | – | A (a compound having 10 or more and less than 20 is denoted as A) | AA (a compound having 20 or more is denoted as AA) |
| 2.7 | 0.064 | – | CCCC[C@H]1C(=O)N[C@@H]([C@@H](C)CC)C(=O)N(C)CC(=O)N(C)[C@H]2C/C=C\CCN(C2=O)[C@@H](Cc2ccc(C(F)(F)F)cc2)C(=O)N(C)CC(=O)N[C@@H](CCc2ccc(C(F)(F)F)c(OC)c2)C(=O)N2C[C@H](OCC)C[C@H]2C(=O)NC2(CC(C)(C)C2)C(=O)N(C)[C@@H](C2CCCC2)C(=O)N(C)[C@H](C(=O)N(C)C)CC(=O)N1C [PP1561] | B (a compound having 3 or more and less than 10 is denoted as B) | A (a compound having 10 or more and less than 20 is denoted as A) | – | – |
| 309 | 1.4 | – | CCO[C@@H]1C[C@H]2C(=O)NC3(CCC3)C(=O)N(C)[C@@H](C3CCCC3)C(=O)N(C)[C@H](C(=O)N(C)C)CC(=O)N(C)[C@@H](CC3CC3)C(=O)N[C@@H]([C@@H](C)CC)C(=O)N(C)CC(=O)N(C)[C@H]3C/C=C\CCN(C3=O)[C@@H](Cc3ccc(F)cc3C)C(=O)N(C)CC(=O)N[C@@H](CCc3cc(F)c(Cl)c(F)c3)C(=O)N2C1 [PP1477] | B (a compound having 3 or more and less than 10 is denoted as B) | A (a compound having 10 or more and less than 20 is denoted as A) | – | – |
| 4.6 | – | 0.12 | CCC[C@H]1C(=O)N[C@@H]([C@@H](C)CC)C(=O)N(C)CC(=O)N(C)[C@H]2C/C=C\CCN(C2=O)[C@@H](Cc2ccc(C(F)(F)F)cc2)C(=O)N(C)CC(=O)N[C@@H](CCc2ccc(C(F)(F)F)c(OC)c2)C(=O)N2C[C@H](OCC)C[C@H]2C(=O)N(C)C2(CCC2)C(=O)N(C)[C@@H](C(CC)CC)C(=O)N(C)[C@H](C(=O)N(C)C)CC(=O)N1C [PP2382] | – | – | A (a compound having 10 or more and less than 20 is denoted as A) | A (a compound having 10 or more and less than 20 is denoted as A) |
